Literature values in patent publication US20230286919A1, “ISOQUINOLINE DERIVATIVES FOR USE IN THERAPY” (Vestlandets Innovasjonsselskap AS, priority 2020, published 2023).

Tested on: STAT1 and STAT5
Conditions: cited from earlier work

## Cc1ccc(S(=O)(=O)OCC(=O)Nc2ccc(C(=O)O)c(O)c2)cc1 [S3I-201]
  Activity towards STAT1 and STAT5: low activity
